Data published in patent publication US9845322B2 (Hoffmann-La Roche Inc., priority 2016, dated 2017).
Read-outs that look alike come from different tables or passages of the source.

Tested on: HBsAg secretion in HepG2.2.15 cells
Experiment: HBsAg assay (chemiluminescence immunoassay of secreted HBsAg in culture supernatant)
Type: cell-based, HBV
Conditions: concentration at which HBsAg secretion was reduced by 50% compared to the no drug control, read-out: IC50 (HBsAg assay)
Method in brief: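 HepG2.2.15 cells (1.5×10^4/well, duplicate) treated with three-fold compound dilutions, 1% DMSO final, DMSO as no-drug control. Secreted HBsAg in supernatant quantified semi-quantitatively by chemiluminescence immunoassay; IC50 is concentration reducing HBsAg 50% versus no-drug control.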

[1] = Hepatitis B virus, HepG2.2.15, HepG2.2.15 cells

| SMILES | IC50 [1] [µM] | IC50 (HepG2.2.15 cells) [µM] |
| --- | --- | --- |
| CC1c2cnc(-c3ncccn3)nc2CCN1c1cc(OCCCOCC(N)=O)cc(F)n1 (stereo not shown) [Example 163, 2-[3-[[2-fluoro-6-(5-methyl-2-pyrimidin-2-yl-7,8-dihydro-5H-pyrido[4,3-d]pyrimidin-6-yl)-4-pyridyl]oxy]propoxy]acetamide] | 0.035 | – |
| CC1c2cnc(-c3ncccn3)nc2CCN1c1cc(OCC2CCCO2)cc(F)n1 (stereo not shown) [Example 166, 6-[6-fluoro-4-(tetrahydrofuran-2-ylmethoxy)-2-pyridyl]-5-methyl-2-pyrimidin-2-yl-7,8-dihydro-5H-pyrido[4,3-d]pyrimidine] | 0.019 | – |
| COC(=O)CCCCCCCOc1cc(F)nc(N2CCc3nc(-c4ncccn4)ncc3C2C)c1 (stereo not shown) [Example 167, methyl 8-[[2-fluoro-6-(5-methyl-2-pyrimidin-2-yl-7,8-dihydro-5H-pyrido[4,3-d]pyrimidin-6-yl)-4-pyridyl]oxy]octanoate] | 0.026 | – |
| CC1c2cnc(-c3ncccn3)nc2CCN1c1cc(OCCCCCCCC(=O)O)cc(F)n1 (stereo not shown) [Example 168, 8-[[2-fluoro-6-(5-methyl-2-pyrimidin-2-yl-7,8-dihydro-5H-pyrido[4,3-d]pyrimidin-6-yl)-4-pyridyl]oxy]octanoic acid] | 0.021 | – |
| CC1c2cnc(-c3ncccn3)nc2CCN1c1cc(OCCCCCCCC(N)=O)cc(F)n1 (stereo not shown) [Example 169, 8-[[2-fluoro-6-(5-methyl-2-pyrimidin-2-yl-7,8-dihydro-5H-pyrido[4,3-d]pyrimidin-6-yl)-4-pyridyl]oxy]octanamide] | 0.018 | – |
| CC1c2cnc(-c3ccccn3)nc2CCN1c1cc(OCCCCCC(=O)O)cc(F)n1 (stereo not shown) [Example 170, 6-[[2-fluoro-6-[5-methyl-2-(2-pyridyl)-7,8-dihydro-5H-pyrido[4,3-d]pyrimidin-6-yl]-4-pyridyl]oxy]hexanoic acid] | 0.016 | – |
| CC1c2cnc(-c3ccccn3)nc2CCN1c1cc(OCCCCCC(N)=O)cc(F)n1 (stereo not shown) [Example 171, 6-[[2-fluoro-6-[5-methyl-2-(2-pyridyl)-7,8-dihydro-5H-pyrido[4,3-d]pyrimidin-6-yl]-4-pyridyl]oxy]hexanamide] | 0.018 | – |
| CC1c2cnc(-c3ncccn3)nc2CCN1c1cc(OC2CCOCC2)cc(F)n1 (stereo not shown) [Example 172, 6-(6-fluoro-4-tetrahydropyran-4-yloxy-2-pyridyl)-5-methyl-2-pyrimidin-2-yl-7,8-dihydro-5H-pyrido[4,3-d]pyrimidine] | 0.056 | – |
| CC1c2cnc(-c3ncccn3)nc2CCN1c1cc(F)cc(OC2CCOCC2)n1 (stereo not shown) [Example 173, 6-(4-fluoro-6-tetrahydropyran-4-yloxy-2-pyridyl)-5-methyl-2-pyrimidin-2-yl-7,8-dihydro-5H-pyrido[4,3-d]pyrimidine] | 0.132 | – |
| CC1c2cnc(-c3ncccn3)nc2CCN1c1cc(OCC(N)=O)cc(F)n1 (stereo not shown) [Example 174, 2-[[2-fluoro-6-(5-methyl-2-pyrimidin-2-yl-7,8-dihydro-5H-pyrido[4,3-d]pyrimidin-6-yl)-4-pyridyl]oxy]acetamide] | 0.66 | – |
| COC(=O)c1cc(F)cc(N2CCc3nc(-c4ncccn4)ncc3C2C)c1 (stereo not shown) [Example 175, methyl 3-fluoro-5-(5-methyl-2-pyrimidin-2-yl-7,8-dihydro-5H-pyrido[4,3-d]pyrimidin-6-yl)benzoate] | 1.47 | – |
| CC1c2cnc(-c3ncccn3)nc2CCN1c1cc(F)cc(C(=O)O)c1 (stereo not shown) [Example 176, 3-fluoro-5-(5-methyl-2-pyrimidin-2-yl-7,8-dihydro-5H-pyrido[4,3-d]pyrimidin-6-yl)benzoic acid] | 27.8 | – |
| COCCCNC(=O)c1cc(F)cc(N2CCc3nc(-c4ncccn4)ncc3C2C)c1 (stereo not shown) [Example 177, 3-fluoro-N-(3-methoxypropyl)-5-(5-methyl-2-pyrimidin-2-yl-7,8-dihydro-5H-pyrido[4,3-d]pyrimidin-6-yl)benzamide] | 0.29 | – |
| COCCCN(C)C(=O)c1cc(F)cc(N2CCc3nc(-c4ncccn4)ncc3C2C)c1 (stereo not shown) [Example 178, 3-fluoro-N-(3-methoxypropyl)-N-methyl-5-(5-methyl-2-pyrimidin-2-yl-7,8-dihydro-5H-pyrido[4,3-d]pyrimidin-6-yl)benzamide] | 0.123 | – |
| CC1c2cnc(-c3ccccn3)nc2CCN1c1cc(OCCCCCCC(=O)O)cc(F)n1 (stereo not shown) [Example 179, 7-[[2-fluoro-6-[5-methyl-2-(2-pyridyl)-7,8-dihydro-5H-pyrido[4,3-d]pyrimidin-6-yl]-4-pyridyl]oxy]heptanoic acid] | 0.029 | – |
| CC1c2cnc(-c3ccccn3)nc2CCN1c1cc(OCCCCCCC(N)=O)cc(F)n1 (stereo not shown) [Example 180, 7-[[2-fluoro-6-[5-methyl-2-(2-pyridyl)-7,8-dihydro-5H-pyrido[4,3-d]pyrimidin-6-yl]-4-pyridyl]oxy]heptanamide] | 0.027 | – |
| COCCCNS(=O)(=O)c1cc(F)cc(N2CCc3nc(-c4ncccn4)ncc3C2C)c1 (stereo not shown) [Example 182, 3-fluoro-N-(3-methoxypropyl)-5-(5-methyl-2-pyrimidin-2-yl-7,8-dihydro-5H-pyrido[4,3-d]pyrimidin-6-yl)benzenesulfonamide] | 2.24 | – |

| SMILES | IC50 [1] [µM] | IC50 (HepG2.2.15 cells) [µM] |
| --- | --- | --- |
| COCCCN(C)S(=O)(=O)c1cc(F)cc(N2CCc3nc(-c4ncccn4)ncc3C2C)c1 (stereo not shown) [Example 183, 3-fluoro-N-(3-methoxypropyl)-N-methyl-5-(5-methyl-2-pyrimidin-2-yl-7,8-dihydro-5H-pyrido[4,3-d]pyrimidin-6-yl)benzenesulfonamide] | 0.838 | – |
| CC1c2cnc(-c3ccccn3)nc2CCN1c1cc(OCCCOCC(N)=O)cc(F)n1 (stereo not shown) [Example 186] | 0.018 | – |
| COCCCS(=O)(=O)c1cc(F)cc(N2CCc3nc(-c4ncccn4)ncc3C2C)c1 (stereo not shown) [Example 187, 6-[3-fluoro-5-(3-methoxypropylsulfonyl)phenyl]-5-methyl-2-pyrimidin-2-yl-7,8-dihydro-5H-pyrido[4,3-d]pyrimidine] | 0.613 | – |
| CC1c2cnc(-c3ccccn3)nc2CCN1c1cc(OCC2CCOC2)cc(F)n1 (stereo not shown) [Example 188, 6-[6-fluoro-4-(tetrahydrofuran-3-ylmethoxy)-2-pyridyl]-5-methyl-2-(2-pyridyl)-7,8-dihydro-5H-pyrido[4,3-d]pyrimidine] | 0.029 | – |
| CC1c2cnc(-c3ccccn3)nc2CCN1c1cc(OCC2CCCO2)cc(F)n1 (stereo not shown) [Example 189, 6-[6-fluoro-4-(tetrahydrofuran-2-ylmethoxy)-2-pyridyl]-5-methyl-2-(2-pyridyl)-7,8-dihydro-5H-pyrido[4,3-d]pyrimidine] | 0.04 | – |
| CC1c2cnc(-c3ccccn3)nc2CCN1c1cc(OCC2CCOCC2)cc(F)n1 (stereo not shown) [Example 190, 6-[6-fluoro-4-(tetrahydropyran-4-ylmethoxy)-2-pyridyl]-5-methyl-2-(2-pyridyl)-7,8-dihydro-5H-pyrido[4,3-d]pyrimidine] | 0.024 | – |
| CC1c2cnc(-c3ccccn3)nc2CCN1c1cc(OCC2CC2)cc(F)n1 (stereo not shown) [Example 191, 6-[4-(cyclopropylmethoxy)-6-fluoro-2-pyridyl]-5-methyl-2-(2-pyridyl)-7,8-dihydro-5H-pyrido[4,3-d]pyrimidine] | 0.035 | – |
| CC1c2cnc(-c3ccccn3)nc2CCN1c1cc(OCC(F)F)cc(F)n1 (stereo not shown) [Example 192, 6-[4-(2,2-difluoroethoxy)-6-fluoro-2-pyridyl]-5-methyl-2-(2-pyridyl)-7,8-dihydro-5H-pyrido[4,3-d]pyrimidine] | 0.03 | – |
| CC1c2cnc(-c3ccccn3)nc2CCN1c1cc(F)cc(OCC(F)F)n1 (stereo not shown) [Example 193, 6-[6-(2,2-difluoroethoxy)-4-fluoro-2-pyridyl]-5-methyl-2-(2-pyridyl)-7,8-dihydro-5H-pyrido[4,3-d]pyrimidine] | 0.083 | – |
| CC1c2cnc(-c3ncccn3)nc2CCN1c1cc(OCC2CSC2)cc(F)n1 (stereo not shown) [Example 194, 6-[6-fluoro-4-(thietan-3-ylmethoxy)-2-pyridyl]-5-methyl-2-pyrimidin-2-yl-7,8-dihydro-5H-pyrido[4,3-d]pyrimidine] | 0.043 | – |
| CC1c2cnc(-c3ncccn3)nc2CCN1c1cc(OCC2CS(=O)(=O)C2)cc(F)n1 (stereo not shown) [Example 195, 3-[[2-fluoro-6-(5-methyl-2-pyrimidin-2-yl-7,8-dihydro-5H-pyrido[4,3-d]pyrimidin-6-yl)-4-pyridyl]oxymethyl]thietane 1,1-dioxide] | 0.055 | – |
| CC1c2cnc(-c3ncccn3)nc2CCN1c1cc(N(C)C)cc(F)n1 (stereo not shown) [Example 196, 2-fluoro-N,N-dimethyl-6-(5-methyl-2-pyrimidin-2-yl-7,8-dihydro-5H-pyrido[4,3-d]pyrimidin-6-yl)pyridin-4-amine] | – | 0.002 |
| CC1c2cnc(-c3ncccn3)nc2CCN1c1cc(F)cc(N(C)C)n1 (stereo not shown) [Example 197, 4-fluoro-N,N-dimethyl-6-(5-methyl-2-pyrimidin-2-yl-7,8-dihydro-5H-pyrido[4,3-d]pyrimidin-6-yl)pyridin-2-amine] | – | 0.006 |
| CC1c2cnc(-c3ncccn3)nc2CCN1c1cc(N2CCCC2)cc(F)n1 (stereo not shown) [Example 198, 6-(6-fluoro-4-pyrrolidin-1-yl-2-pyridyl)-5-methyl-2-pyrimidin-2-yl-7,8-dihydro-5H-pyrido[4,3-d]pyrimidine] | – | 0.004 |
| CC1c2cnc(-c3ncccn3)nc2CCN1c1cc(F)cc(N2CCCC2)n1 (stereo not shown) [Example 199, 6-(4-fluoro-6-pyrrolidin-1-yl-2-pyridyl)-5-methyl-2-pyrimidin-2-yl-7,8-dihydro-5H-pyrido[4,3-d]pyrimidine] | 0.018 | – |
| CC1c2cnc(-c3ncccn3)nc2CCN1c1cc(N2CCOCC2)cc(F)n1 (stereo not shown) [Example 202, 4-[2-fluoro-6-(5-methyl-2-pyrimidin-2-yl-7,8-dihydro-5H-pyrido[4,3-d]pyrimidin-6-yl)-4-pyridyl]morpholine] | 0.013 | – |
| CC1c2cnc(-c3ncccn3)nc2CCN1c1cc(N2CCNCC2)cc(F)n1 (stereo not shown) [Example 208, 6-(6-fluoro-4-piperazin-1-yl-2-pyridyl)-5-methyl-2-pyrimidin-2-yl-7,8-dihydro-5H-pyrido[4,3-d]pyrimidine] | 0.186 | – |
